The values that follow are results of earlier work, collected in publication PMC7941644, “Identification and Development of Therapeutics for COVID-19” (ArXiv, 2021).

Where two headings read alike, the source gives them in different places.

Data set [1] relates to COVID-19. More on the design: method as in PMID 33492523. The conditions noted are these: mild to moderate symptoms, in addition to SOC; p = 0.06.
The next data set deals with SARS-CoV-1. The conditions noted are these: Vero E6 cells.
A further data set deals with Vero E6 cells. The conditions noted are these: read-out: 90% effective concentration (EC90).
The test system of data set [2] is SARS-CoV-2. The conditions noted are these: SARS-CoV-2 infection of Vero cells.
Data set [3] relates to SARS-CoV-2. Conditions: second interim analysis, 600 mg daily; control 3.
The subject of data set [4] is COVID-19. Conditions: vs SOC.
For data set [5], the system named is SARS-CoV-2.
Data set [6] has as its system COVID-19. The conditions noted are these: days 3–6; study design severely limited.
The subject of data set [7] is COVID-19. Conditions: treatment vs control groups.
The test system of data set [8] is SARS-CoV-2. The conditions noted are these: control 16.8%, p < 0.001.
The test system of data set [9] is COVID-19. Conditions: ivermectin preliminary; HCQ and lopinavir-ritonavir ref 144.
Data set [10] relates to COVID-19. Conditions: HCQ arm vs control.
Data set [11] relates to COVID-19.
Data set [12] deals with COVID-19. The source holds these as a separate data set.
Data set [13] concerns COVID-19. The conditions noted are these: vs SOC alone.
Data set [14] concerns COVID-19. The source holds these as a separate data set.
Data set [15] has as its system COVID-19. This is another data set of the same source.
Data set [16] deals with COVID-19. This is another data set of the same source.
The test system of data set [17] is COVID-19. Conditions: compared to placebo.

On to `CCN(CC)CCCC(C)Nc1ccnc2cc(Cl)ccc12` (stereo not drawn) [CQ, chloroquine], for which the hospital stay in the data set with COVID-19 [1] is reported as 15.89 days. Further, in the data set on SARS-CoV-1, the “inhibition of viral entry” value was “inhibited viral entry of SARS-CoV-1”. Moreover, the EC90 in the data set on Vero E6 cells is 6.9 µM. For the same compound, the “inhibition of viral replication” value in the data set with SARS-CoV-2 [2] was “effective in inhibiting viral replication”.
With `CCN(CCO)CCCC(C)Nc1ccnc2cc(Cl)ccc12` (stereo not drawn) [HCQ, hydroxychloroquine], the “risk with short-term use” value was “not associated with additional risk”. The “individuals who had contracted COVID-19” value in the data set on SARS-CoV-2 [3] is 4. For the same compound, the “time to fever break and time to cough relief” value with COVID-19 [4] was “decreased both average time to fever break and average time to cough relief”. In addition, the “median time to symptom alleviation” value in the data set with SARS-CoV-2 [5] (HCQ + SOC, SOC 21 days, p = 0.97) is 19 days. Besides, the “estimated difference in negative conversion rate of SARS-CoV-2 in 28 days” value with SARS-CoV-2 [5] (SOC plus HCQ vs SOC, 95% CI −10.3% to 18.5%) was 4.1%. Besides, the diarrhea with SARS-CoV-2 [5] (SOC+HCQ, 0% in SOC group, p = 0.004) is 10%. Further, the “patients reporting adverse outcomes” value with SARS-CoV-2 [5] (SOC+HCQ, SOC only 8.8%) is 30%. In addition, the “virological clearance by nasopharyngeal swab” value with COVID-19 [6] was “higher rates of virological clearance”. Moreover, the “virological clearance rate, time to virological clearance, time to body temperature normalization” value with COVID-19 [7] was “comparable outcomes”. In addition, in the data set on SARS-CoV-2 [8], the “patients reporting side effects” value was 40.1%. The “effect on COVID-19 outcomes” value in the data set with COVID-19 [9] is recorded as “no effect”. Moreover, the “increase in cardiac events” value in the data set with COVID-19 [10] is on record as 0.4 percentage points. In addition, in the data set on COVID-19 [11] (day 3, 95% CI −0.28 to 0.29), the “difference in viral load between HCQ and control groups” value is 0.01. Further, the “difference in viral load between HCQ and control groups” value in the data set on COVID-19 [11] (day 7, 95% CI −0.44 to 0.29) is given as −0.07. Moreover, the “difference in time to complete resolution of symptoms” value with COVID-19 [11] (p = 0.38) was -2 days. Besides, the “adjusted HR, risk of death” value in the data set on COVID-19 [12] (compared to no-HCQ group) is 2.61. In addition, the rate of death with COVID-19 [12] (men, median age 65, no-HCQ group 14.1%) was 27.8%. The “inhibition of viral replication” value in the data set on SARS-CoV-2 [2] was “effective in inhibiting viral replication”.
For `COC(=O)OCOc1c2n(ccc1=O)N([C@@H]1c3ccccc3SCc3c1ccc(F)c3F)[C@@H]1COCCN1C2=O` [baloxavir marboxil], in the data set on COVID-19 [13], the “effect on viral clearance at day 14 and secondary outcomes” value was “no significant effect”.
As to `NC(=O)c1nc(F)cnc1O` [favipiravir, 6-fluoro-3-hydroxy-2-pyrazinecarboxamide], the “time to viral clearance by RT-PCR” value in the data set on COVID-19 [14] (35 favipiravir, 45 control patients) was “four”. For the same compound, in the data set on COVID-19 [14] (control 56%), the “patients with adverse side effects” value is 11%. Moreover, in the data set on COVID-19 [14] (day 14, control 62%, p = 0.004), the “improvement rate of lung CT scans” value is reported as 91%. In the data set on COVID-19 [15], the “effect on viral clearance at four days (secondary endpoint)” value is listed as “significant effect” and the tolerability entry is “generally well-tolerated”. Moreover, the hospital stay in the data set on COVID-19 [1] was 13.29 days. The “effect on viral clearance at day 14 and secondary outcomes” value with COVID-19 [13] is “no significant effect”.
As to `Cc1cccc(C)c1OCC(=O)N[C@@H](Cc1ccccc1)[C@@H](O)C[C@H](Cc1ccccc1)NC(=O)[C@H](C(C)C)N1CCCNC1=O` [lopinavir], the “effect on COVID-19-related mortality” value with COVID-19 [16] is on record as “no effect”.
Turning to sotrovimab, the “rates of adverse events” value with COVID-19 [17] is “comparable, and in some cases lower”. For the same compound, the “more effective in reducing progression to the primary endpoint (hospitalized for more than 24 hours or died within 29 days)” value in the data set with COVID-19 [17] (583 patients) is listed as 85%.
